Experimental data from patent publication US4199600A, “Preservation of aqueous systems with α-halo-β-aminocrotonic acid esters” (Givaudan Corporation, priority 1978, dated 1980).
In brackets after ≈: the same amount, converted by molar mass. Where two headings read alike, the source gives them in different places.

Key:
Type in all cases: cell-based
Aspergillis oryzae = test: General antimicrobial activity, agar dilution MIC (fungi); details: 168 h, mildew glucose agar, 28° C., seven days, growth only at the lower concentration of the range, read-out: Minimum Inhibitory Concentration
Method: A 6% soltuion of α-halo-β-aminocrotonic acid ester in dimethyl formamide was prepared. The 6% solution was then […] serially diluted in test tubes to give the desired concentrations when mixed with agar and poured into sterile Petri dishes. For instance, 0.8 ml of a 6% stock solution plus 24.2 ml of agar gives a test concentration of 1920 mcg/ml, the highest level tested. Tryptone glucose extract agar is used for the bacterial testing; mildew glucose agar for the fungal testing. The bacterial plates were spot inoculated with 24-hour nutrient broth cultures and incubated at 37° C. for 48 hours. The fungal plates were spot inoculated with spore suspensions and incubated at 28° C. for seven days. At the end of the incubation periods, all plates were examined for growth. The minimum inhibitory concentration (MIC) for each organism is expressed in Table I. In the ranges presented, growth is observed only at the lower concentration.

Aspergillus niger = test: Cosmetic preservative test in lotion; details: 28° C.
Method: (§1) The α-halo-β-aminocrotonic acid esters are effective cosmetic preservatives. Two-fold serial dilutions of 6% solutions of the α-halo-β-aminocrotonic acid esters in dimethylformamide were added to a cosmetic lotion of the following formulation: The lotions were inoculated with both Pseudomonas aeruginosa and Aspergillus niger and incubated at 28° C. At weekly intervals, the lotions were examined for microorganisms by conventional streak-plate methods or by macroscopic observation. The lotions were then reinoculated with the test organisms and reincubated.

Pseudomonas aeruginosa [1] = test: Cosmetic preservative test in lotion; details: 28° C.
Method: as §1

Pseudomonas aeruginosa [2] = test: Cutting oil preservative test in 3.3% cutting oil emulsion; details: for MIC: Pseudomonas aeruginosa, 3.3% cutting oil emulsion, 28° C., rotary shaker, read-out: Minimum Inhibitory Concentration Range
Method: (§2) In running these tests, two-fold serial dilutions of 6% solutions of the compound in dimethylformamide was added to 3.3% cutting oil elumsions. The emulsions were prepared by diluting with water a commercially available cutting oil concentrate. The emulsions were inoculated with a culture of Pseudomonas aeruginosa and incubated at 28° C. on a rotary shaker. At weekly intervals, the emulsions were examined for bacteria by conventional streakplate methods. The emulsions were then reinoculated with Pseudomonas aeruginosa and reincubated.

Pseudomonas aeruginosa [3] = test: Textile lubricant preservative test; details: commercial textile lubricant, 28° C.
Method: as §2
The test run was the same as for the cutting oil above except that a commercial textile lubricant was substituted.

A. niger = test: Slimicide test for pulp and paper mill water systems; details: 28° C.
Method: (§3) Various quantities of a 6% solution of this compound in dimethylformamide were incorporated into 24 ml of a test substrate composed as follows:
(§4) 8.4 g--Whatman No. 2 powdered cellulose
(§5) 1.0 g--Nutrient Broth, Difco
(§6) 10.0 ml--Mersize Rm 70R (Monsanto)
(§7) The samples were inoculated with four different organisms and incubated at 28° C. At weekly intervals the samples were examined for the presence of microbial growth and reinoculated during a total incubation period of four weeks.

E. aerogenes = test: as above; details: Klebsiella aerogenes, 28° C.
Method: as §3, §4, §5, §6, §7

P. Piscarium = test: as above; details: 28° C.
Method: as §3, §4, §5, §6, §7

P. aeruginosa = test: as above; details: 28° C.
Method: as §3, §4, §5, §6, §7

[4] = week 1, read-out: Minimum Inhibitory Concentration Range
[5] = week 3, reinoculated weekly, read-out: Minimum Inhibitory Concentration Range
[6] = week 4, reinoculated weekly, read-out: Minimum Inhibitory Concentration Range
[7] = (week 4), reinoculated weekly, read-out: Effectiveness as a Slimicide
[8] = week 1, read-out: Effectiveness as a Slimicide
[9] = week 2, reinoculated weekly, read-out: Effectiveness as a Slimicide
[10] = week 3, reinoculated weekly, read-out: Effectiveness as a Slimicide

**Q.** Which results are given for `COC(=O)/C(Cl)=C(/C)N` [α-Chloro-β-aminocrotonic acid methyl ester]?
**A.** MIC (Aspergillis oryzae): 15 µg/mL (≈ 100 µM); MIC (Aspergillus niger; [4]): < 125 µg/mL; MIC (Aspergillus niger; [5]): 1000 to 2000 µg/mL (≈ 6690 to 13400 µM); MIC (Aspergillus niger; [6]): > 2000 µg/mL; Minimum Inhibitory Concentration Range (Pseudomonas aeruginosa [1]; week 2, reinoculated weekly): < 125 µg/mL; Minimum Inhibitory Concentration Range (Pseudomonas aeruginosa [1]; week 3, reinoculated weekly): < 125 µg/mL; Minimum Inhibitory Concentration Range (Pseudomonas aeruginosa [1]; week 4, reinoculated weekly): < 125 µg/mL; MIC (Pseudomonas aeruginosa [1]; Pseudomonas aeruginosa, week 1, read-out: Minimum Inhibitory Concentration Range): < 125 µg/mL; MIC (Pseudomonas aeruginosa [2]; week 1): < 31.3 µg/mL; MIC (Pseudomonas aeruginosa [2]; week 2, reinoculated weekly): 62.5 to 125 µg/mL (≈ 418 to 836 µM); MIC (Pseudomonas aeruginosa [2]; week 3, reinoculated weekly): 125 to 250 µg/mL (≈ 836 to 1670 µM); MIC (Pseudomonas aeruginosa [2]; week 4, reinoculated weekly): 250 to 500 µg/mL (≈ 1670 to 3340 µM); effectiveness as cutting oil preservative (in words) (Pseudomonas aeruginosa [2]; overall statement on Table III): effective cutting preservative; MIC (Pseudomonas aeruginosa [3]; [4]): 62.5 to 125 µg/mL (≈ 418 to 836 µM); MIC (Pseudomonas aeruginosa [3]; week 2, reinoculated weekly, read-out: Minimum Inhibitory Concentration Range): 62.5 to 125 µg/mL (≈ 418 to 836 µM); MIC (Pseudomonas aeruginosa [3]; [5]): 62.5 to 125 µg/mL (≈ 418 to 836 µM); MIC (Pseudomonas aeruginosa [3]; [6]): 125 to 250 µg/mL (≈ 836 to 1670 µM); Effectiveness as a Slimicide (A. niger; (week 4), reinoculated weekly): < 62.5 µg/mL; Effectiveness as a Slimicide (A. niger; week 2, reinoculated weekly): < 62.5 µg/mL; Effectiveness as a Slimicide (A. niger; week 3, reinoculated weekly): < 62.5 µg/mL; MIC (A. niger; Aspergillus niger, week 1, read-out: Effectiveness as a Slimicide): < 62.5 µg/mL; MIC (E. aerogenes; [7]): 250 to 500 µg/mL (≈ 1670 to 3340 µM); MIC (E. aerogenes; [8]): < 62.5 µg/mL; MIC (E. aerogenes; [9]): 125 to 250 µg/mL (≈ 836 to 1670 µM); MIC (E. aerogenes; [10]): 250 to 500 µg/mL (≈ 1670 to 3340 µM); MIC (P. Piscarium; [7]): 62.5 to 125 µg/mL (≈ 418 to 836 µM); MIC (P. Piscarium; [8]): < 62.5 µg/mL; MIC (P. Piscarium; [9]): < 62.5 µg/mL; MIC (P. Piscarium; [10]): < 62.5 µg/mL; Effectiveness as a Slimicide (P. aeruginosa; (week 4), reinoculated weekly): < 62.5 µg/mL; Effectiveness as a Slimicide (P. aeruginosa; week 2, reinoculated weekly): < 62.5 µg/mL; Effectiveness as a Slimicide (P. aeruginosa; week 3, reinoculated weekly): < 62.5 µg/mL; MIC (P. aeruginosa; Pseudomonas aeruginosa, week 1, read-out: Effectiveness as a Slimicide): < 62.5 µg/mL
